This test relates to P388 leukemia ip, CD2F1 mice, survival T/C. The test can be described thus: NCI In Vivo Anticancer Drug Screen. Data for tumor model P388 Leukemia (intraperitoneal) in CD2F1 (CDF1) mice. Particulars: endpoint: median survival time, higher = longer survival. An outline of the steps:
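Mice carrying the transplanted tumor received test compound or vehicle. Survival was recorded in each group, and the value is the treated-group measurement divided by that of the vehicle-treated control group.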

[1] abbreviates: dose: 25.0 mg/kg/injection, schedule: Q01DX005 (ip), vehicle: saline.
The mark [2] stands for this setting: dose: 100.0 mg/kg/injection, schedule: Q04DX003 (ip), vehicle: saline with Tween-80.
[3] abbreviates: dose: 200.0 mg/kg/injection, schedule: Q04DX003 (ip), vehicle: saline with Tween-80.
The mark [4] stands for this setting: dose: 400.0 mg/kg/injection, schedule: Q04DX003 (ip), vehicle: saline with Tween-80.

Where “and” joins values, the source holds several entries; their conditions need not be identical. Equal entries are not always repeated. Inconclusive results and toxic doses are left out.

Take `COC(=O)C1=CCN2CCCC12C` (stereo unspecified): the T/C (dose: 25.0 mg/kg/injection, schedule: Q01DX001 (ip), vehicle: saline) is 97 % of control; the T/C (dose: 50.0 mg/kg/injection, schedule: Q01DX001 (ip), vehicle: saline) was 101 % of control; the T/C (dose: 100.0 mg/kg/injection, schedule: Q01DX001 (ip), vehicle: saline) is 105 % of control.

Turning to `NC(=S)c1ccc(N=Cc2ccco2)cc1`, the T/C runs as follows: (dose: 100.0 mg/kg/injection, schedule: Q01DX001 (ip), vehicle: Klucel (hydroxypropylcellulose) (HPC)) 102 % of control; (dose: 200.0 mg/kg/injection, schedule: Q01DX001 (ip), vehicle: Klucel (hydroxypropylcellulose) (HPC)) 104 % of control; (dose: 400.0 mg/kg/injection, schedule: Q01DX001 (ip), vehicle: Klucel (hydroxypropylcellulose) (HPC)) 105 % of control.

In the case of `CC1CCCC(C)N1C(=O)OCC12COC3(C)CCC(C)(OC1)N23` (stereo unspecified), the T/C was 100 % of control under setting [1]; 95 % of control (dose: 50.0 mg/kg/injection, schedule: Q01DX005 (ip), vehicle: Klucel (hydroxypropylcellulose) (HPC)); 99 % of control and 100 % of control (dose: 50.0 mg/kg/injection, schedule: Q01DX005 (ip), vehicle: saline); 109 % of control (dose: 100.0 mg/kg/injection, schedule: Q01DX005 (ip), vehicle: Klucel (hydroxypropylcellulose) (HPC)); 104 % of control and 108 % of control (dose: 100.0 mg/kg/injection, schedule: Q01DX005 (ip), vehicle: saline); 109 % of control (dose: 200.0 mg/kg/injection, schedule: Q01DX005 (ip), vehicle: Klucel (hydroxypropylcellulose) (HPC)). Also, the T/C (dose: 200.0 mg/kg/injection, schedule: Q01DX005 (ip), vehicle: saline) was 122 % of control and 96 % of control.

Regarding `O=C1c2ccccc2C(=O)N1CCCN1CCOCCOCCN(CCCN2C(=O)c3ccccc3C2=O)CCOCC1`, the T/C (dose: 50.0 mg/kg/injection, schedule: Q01DX005 (ip), vehicle: saline + Tween-80 + alcohol) is 105 % of control and the T/C (dose: 100.0 mg/kg/injection, schedule: Q01DX005 (ip), vehicle: saline + Tween-80 + alcohol) was 97 % of control.

As to `Nc1ccc(S(=O)(=O)c2cc(O)c3ccccc3c2O)cc1`, the T/C (dose: 50.0 mg/kg/injection, schedule: Q01DX009 (ip), vehicle: Klucel (hydroxypropylcellulose) (HPC)) was 104 % of control.

On to `COc1ccc(CCNC(=O)Cc2ccc(OC)c(OC)c2)cc1OC`, for which the T/C is 100 % of control (dose: 100.0 mg/kg/injection, schedule: Q01DX009 (ip), vehicle: saline with Tween-80); 106 % of control (dose: 200.0 mg/kg/injection, schedule: Q01DX009 (ip), vehicle: saline with Tween-80); 123 % of control (dose: 400.0 mg/kg/injection, schedule: Q01DX009 (ip), vehicle: saline with Tween-80).

In the case of `CN(Cc1cnc2nc(N)nc(N)c2n1)c1c(Cl)cc(C(=O)NC(CCC(=O)O)C(=O)O)cc1Br` (stereo unspecified), the T/C by setting is: (dose: 0.3 mg/kg/injection, schedule: Q01DX003 (ip), vehicle: saline) 183 % of control; (dose: 0.4 mg/kg/injection, schedule: Q01DX003 (ip), vehicle: saline) 177 % of control; under setting [2], 170 % of control; under setting [3], 170 % of control; under setting [4], 162 % of control and 195 % of control; (dose: 600.0 mg/kg/injection, schedule: Q04DX003 (ip), vehicle: saline with Tween-80) 154 % of control.

Consider `CC(C)CCOC(=O)CN(CC(=O)OCCC(C)C)c1ccccc1`, for which the T/C by setting is: under setting [2], 104 % of control; under setting [3], 100 % of control; under setting [4], 95 % of control.

With `CCOC(=O)C(C)(NC(=O)c1ccccc1)C(=O)OCC`, the T/C was 101 % of control and 105 % of control (dose: 60.0 mg/kg/injection, schedule: Q01DX005 (ip), vehicle: saline); 109 % of control (dose: 120.0 mg/kg/injection, schedule: Q01DX005 (ip), vehicle: saline); 100 % of control and 97 % of control (dose: 240.0 mg/kg/injection, schedule: Q01DX005 (ip), vehicle: saline).

Consider `CCCC(=O)Oc1c(OC)cc(O)c2c(=O)c(O)c(-c3ccc(OC)cc3)oc12`, for which the T/C (dose: 14.0 mg/kg/injection, schedule: Q01DX005 (ip), vehicle: Klucel (hydroxypropylcellulose) (HPC)) is 89 % of control; the T/C (dose: 56.0 mg/kg/injection, schedule: Q01DX005 (ip), vehicle: Klucel (hydroxypropylcellulose) (HPC)) is 87 % of control; the T/C (dose: 112.0 mg/kg/injection, schedule: Q01DX005 (ip), vehicle: Klucel (hydroxypropylcellulose) (HPC)) is 108 % of control.

Regarding `C/C(=N\NC(N)=S)c1ccc2c(c1)Cc1cc(/C(C)=N/NC(N)=S)ccc1-2`, the T/C is 99 % of control (dose: 25.0 mg/kg/injection, schedule: Q04DX002 (ip), vehicle: saline with Tween-80); 92 % of control (dose: 50.0 mg/kg/injection, schedule: Q04DX002 (ip), vehicle: saline with Tween-80); 93 % of control (dose: 100.0 mg/kg/injection, schedule: Q04DX002 (ip), vehicle: saline with Tween-80); 95 % of control (dose: 200.0 mg/kg/injection, schedule: Q04DX002 (ip), vehicle: saline with Tween-80).

`Cc1cccc(C)c1N=Cc1ccc([N+](=O)[O-])cc1`: the T/C is 100 % of control (dose: 50.0 mg/kg/injection, schedule: Q01DX009 (ip), vehicle: saline); 99 % of control (dose: 100.0 mg/kg/injection, schedule: Q01DX009 (ip), vehicle: saline); 102 % of control (dose: 200.0 mg/kg/injection, schedule: Q01DX009 (ip), vehicle: saline).

As for `CCCC[As](CCCC)SC1CCC2(C)C(=CCC3C4CCC(=O)C4(C)CCC32)C1` (stereo unspecified), the T/C is, setting by setting: (dose: 12.5 mg/kg/injection, schedule: Q01DX009 (ip), vehicle: distilled water + Tween-80) 98 % of control; (dose: 25.0 mg/kg/injection, schedule: Q01DX009 (ip), vehicle: distilled water + Tween-80) 98 % of control; (dose: 50.0 mg/kg/injection, schedule: Q01DX009 (ip), vehicle: distilled water + Tween-80) 92 % of control; (dose: 100.0 mg/kg/injection, schedule: Q01DX009 (ip), vehicle: distilled water + Tween-80) 89 % of control; (dose: 200.0 mg/kg/injection, schedule: Q01DX009 (ip), vehicle: distilled water + Tween-80) 107 % of control.

In the case of `CN1C2CCC1CC(Cl)C2` (stereo unspecified), the T/C reads like this: (dose: 6.0 mg/kg/injection, schedule: Q01DX005 (ip), vehicle: saline) 107 % of control; (dose: 7.5 mg/kg/injection, schedule: Q01DX005 (ip), vehicle: saline) 91 % of control; (dose: 12.0 mg/kg/injection, schedule: Q01DX005 (ip), vehicle: saline) 107 % of control; (dose: 15.0 mg/kg/injection, schedule: Q01DX005 (ip), vehicle: saline) 99 % of control; under setting [1], 102 % of control; (dose: 30.0 mg/kg/injection, schedule: Q01DX005 (ip), vehicle: saline) 99 % of control.

Turning to `COc1cc2c(c(OC)c1OC)-c1ccc(OC)c(=O)cc1[C@@H](NC(=O)C(F)(F)F)CC2`, the T/C is, setting by setting: (dose: 0.09 mg/kg/injection, schedule: Q01DX009 (ip), vehicle: Klucel (hydroxypropylcellulose) (HPC)) 121 % of control; (dose: 0.18 mg/kg/injection, schedule: Q01DX009 (ip), vehicle: Klucel (hydroxypropylcellulose) (HPC)) 123 % of control; (dose: 6.0 micrograms/kg/injection, schedule: Q01DX009 (ip), vehicle: Klucel (hydroxypropylcellulose) (HPC)) 101 % of control; (dose: 12.0 micrograms/kg/injection, schedule: Q01DX009 (ip), vehicle: Klucel (hydroxypropylcellulose) (HPC)) 111 % of control; (dose: 24.0 micrograms/kg/injection, schedule: Q01DX009 (ip), vehicle: Klucel (hydroxypropylcellulose) (HPC)) 112 % of control; (dose: 24.38 micrograms/kg/injection, schedule: Q01DX009 (ip), vehicle: Klucel (hydroxypropylcellulose) (HPC)) 120 % of control. The T/C runs as follows: (dose: 48.0 micrograms/kg/injection, schedule: Q01DX009 (ip), vehicle: Klucel (hydroxypropylcellulose) (HPC)) 121 % of control; (dose: 48.75 micrograms/kg/injection, schedule: Q01DX009 (ip), vehicle: Klucel (hydroxypropylcellulose) (HPC)) 120 % of control; (dose: 97.0 micrograms/kg/injection, schedule: Q01DX009 (ip), vehicle: Klucel (hydroxypropylcellulose) (HPC)) 119 % of control; (dose: 97.5 micrograms/kg/injection, schedule: Q01DX009 (ip), vehicle: Klucel (hydroxypropylcellulose) (HPC)) 118 % of control; (dose: 195.0 micrograms/kg/injection, schedule: Q01DX009 (ip), vehicle: Klucel (hydroxypropylcellulose) (HPC)) 122 % of control; (dose: 390.0 micrograms/kg/injection, schedule: Q01DX009 (ip), vehicle: Klucel (hydroxypropylcellulose) (HPC)) 155 % of control.

Take `CCOP1(OCC)(OCC)OC(C(F)(F)F)(C(F)(F)F)C(C(F)(F)F)(C(F)(F)F)O1`: the T/C is, setting by setting: (dose: 6.25 mg/kg/injection, schedule: Q01DX009 (ip), vehicle: saline with Tween-80) 100 % of control; (dose: 12.5 mg/kg/injection, schedule: Q01DX009 (ip), vehicle: saline with Tween-80) 105 % of control.

These data come from PubChem BioAssay AID330 (DTP/NCI, 2004).
